Laboratory results published in ChEMBL document CHEMBL3112449, “Identification of a selective inhibitor of murine intestinal alkaline phosphatase (ML260) by concurrent ultra-high throughput screening against human and mouse isozymes” (Bioorg Med Chem Lett, 2014).
Calls of active or inactive are those of the source. No cut-off for these calls is given here.

Experiments:
[1] = biological target: T1, Intestinal-type alkaline phosphatase (Homo sapiens, UniProt P09923); assay: Inhibition of human FLAG-tagged IAP expressed in African green monkey COS1 cells using p-nitrophenyl phosphate as substrate after 30 mins by chemiluminescence assay; assay type: cell-based, COS-1
T1 sequence (P09923 whole entry): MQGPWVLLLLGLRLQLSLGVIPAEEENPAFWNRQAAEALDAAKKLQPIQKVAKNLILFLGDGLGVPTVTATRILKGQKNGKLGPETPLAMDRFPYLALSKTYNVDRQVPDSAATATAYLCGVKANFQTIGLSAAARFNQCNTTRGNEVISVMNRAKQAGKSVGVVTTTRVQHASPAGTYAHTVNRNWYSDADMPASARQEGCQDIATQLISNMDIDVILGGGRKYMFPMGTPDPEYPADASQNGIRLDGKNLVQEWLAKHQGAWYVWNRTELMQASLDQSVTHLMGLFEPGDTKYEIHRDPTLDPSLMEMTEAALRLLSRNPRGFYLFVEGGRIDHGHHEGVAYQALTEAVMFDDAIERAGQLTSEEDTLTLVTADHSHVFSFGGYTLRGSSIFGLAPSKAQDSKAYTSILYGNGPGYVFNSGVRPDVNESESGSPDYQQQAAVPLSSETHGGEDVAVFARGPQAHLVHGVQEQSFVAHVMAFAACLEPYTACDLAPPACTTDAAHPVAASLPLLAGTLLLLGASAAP

[2] = biological target: T2, Intestinal-type alkaline phosphatase (Mus musculus, UniProt P24822); assay: Competitive inhibition of mouse duodenal-specific FLAG-tagged IAP expressed in African green monkey COS1 cells using p-nitrophenyl phosphate as substrate by double reciprocal plot analysis; assay type: cell-based, COS-1; conditions: read-out: Ki(app)
T2 sequence (P24822 whole entry): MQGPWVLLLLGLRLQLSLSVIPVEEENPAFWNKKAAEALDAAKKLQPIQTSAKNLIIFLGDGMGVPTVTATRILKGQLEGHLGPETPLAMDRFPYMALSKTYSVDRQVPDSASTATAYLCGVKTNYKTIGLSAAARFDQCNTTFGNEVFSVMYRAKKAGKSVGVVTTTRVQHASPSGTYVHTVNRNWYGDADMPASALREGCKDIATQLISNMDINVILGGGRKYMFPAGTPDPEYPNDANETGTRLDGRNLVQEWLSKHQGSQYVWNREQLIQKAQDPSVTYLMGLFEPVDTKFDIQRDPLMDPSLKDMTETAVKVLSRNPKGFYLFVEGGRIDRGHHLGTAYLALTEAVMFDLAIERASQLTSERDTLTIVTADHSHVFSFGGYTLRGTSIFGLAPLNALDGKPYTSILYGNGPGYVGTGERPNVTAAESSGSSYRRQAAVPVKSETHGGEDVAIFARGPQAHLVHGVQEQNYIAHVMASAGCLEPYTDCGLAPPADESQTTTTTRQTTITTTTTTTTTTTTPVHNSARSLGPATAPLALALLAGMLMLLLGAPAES

[3] = Inhibition of mouse gIAP using p-nitrophenyl phosphate as substrate after 30 mins by chemiluminescence assay
[4] = biological target: T3, Alkaline phosphatase, germ cell type (Mus musculus, UniProt P24823); assay: Inhibition of mouse EAP using p-nitrophenyl phosphate as substrate after 30 mins by chemiluminescence assay
T3 sequence (P24823 whole entry): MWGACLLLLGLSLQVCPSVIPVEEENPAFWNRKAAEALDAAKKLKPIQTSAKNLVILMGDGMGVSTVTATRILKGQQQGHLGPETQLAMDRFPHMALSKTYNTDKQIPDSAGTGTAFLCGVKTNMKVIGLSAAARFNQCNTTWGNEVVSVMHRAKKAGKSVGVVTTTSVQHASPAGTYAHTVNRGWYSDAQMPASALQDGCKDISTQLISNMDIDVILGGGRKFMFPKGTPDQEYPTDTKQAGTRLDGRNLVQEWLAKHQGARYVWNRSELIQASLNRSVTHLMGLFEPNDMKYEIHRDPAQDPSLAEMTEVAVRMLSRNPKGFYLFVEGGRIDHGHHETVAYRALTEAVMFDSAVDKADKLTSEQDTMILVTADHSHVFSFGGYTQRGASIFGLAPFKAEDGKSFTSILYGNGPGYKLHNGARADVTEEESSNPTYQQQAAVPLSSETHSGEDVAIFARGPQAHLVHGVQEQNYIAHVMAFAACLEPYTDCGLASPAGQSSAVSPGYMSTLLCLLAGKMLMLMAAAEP

[5] = biological target: T2, Intestinal-type alkaline phosphatase; assay: Inhibition of mouse duodenal-specific FLAG-tagged IAP expressed in African green monkey COS1 cells using p-nitrophenyl phosphate as substrate after 30 mins by chemiluminescence assay
[6] = biological target: Alkaline phosphatase, placental type (Homo sapiens, UniProt P05187); assay: Inhibition of FLAG-tagged PLAP (unknown origin) expressed in African green monkey COS1 cells after 30 mins by chemiluminescence assay; assay type: cell-based, COS-1
Sequence of Alkaline phosphatase, placental type (P05187 whole entry): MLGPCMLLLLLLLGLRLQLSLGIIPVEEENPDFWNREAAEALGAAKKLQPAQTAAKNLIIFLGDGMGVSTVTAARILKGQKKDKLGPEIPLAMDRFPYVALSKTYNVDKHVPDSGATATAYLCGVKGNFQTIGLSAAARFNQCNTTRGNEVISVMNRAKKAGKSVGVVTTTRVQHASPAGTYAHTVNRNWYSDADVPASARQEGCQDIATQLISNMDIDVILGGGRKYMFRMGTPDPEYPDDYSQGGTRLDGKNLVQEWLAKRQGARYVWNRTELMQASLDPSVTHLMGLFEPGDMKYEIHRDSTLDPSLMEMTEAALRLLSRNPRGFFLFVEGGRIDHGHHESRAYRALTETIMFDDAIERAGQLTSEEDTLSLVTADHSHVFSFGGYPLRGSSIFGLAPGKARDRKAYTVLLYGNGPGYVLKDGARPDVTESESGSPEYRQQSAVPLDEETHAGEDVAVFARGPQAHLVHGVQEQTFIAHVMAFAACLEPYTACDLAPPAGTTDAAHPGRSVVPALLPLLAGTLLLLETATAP

[7] = biological target: T4, Alkaline phosphatase, tissue-nonspecific isozyme (Homo sapiens, UniProt P05186); assay: Inhibition of FLAG-tagged TNAP (unknown origin) expressed in African green monkey COS1 cells after 30 mins by chemiluminescence assay; assay type: cell-based, COS-1
T4 sequence (P05186 whole entry): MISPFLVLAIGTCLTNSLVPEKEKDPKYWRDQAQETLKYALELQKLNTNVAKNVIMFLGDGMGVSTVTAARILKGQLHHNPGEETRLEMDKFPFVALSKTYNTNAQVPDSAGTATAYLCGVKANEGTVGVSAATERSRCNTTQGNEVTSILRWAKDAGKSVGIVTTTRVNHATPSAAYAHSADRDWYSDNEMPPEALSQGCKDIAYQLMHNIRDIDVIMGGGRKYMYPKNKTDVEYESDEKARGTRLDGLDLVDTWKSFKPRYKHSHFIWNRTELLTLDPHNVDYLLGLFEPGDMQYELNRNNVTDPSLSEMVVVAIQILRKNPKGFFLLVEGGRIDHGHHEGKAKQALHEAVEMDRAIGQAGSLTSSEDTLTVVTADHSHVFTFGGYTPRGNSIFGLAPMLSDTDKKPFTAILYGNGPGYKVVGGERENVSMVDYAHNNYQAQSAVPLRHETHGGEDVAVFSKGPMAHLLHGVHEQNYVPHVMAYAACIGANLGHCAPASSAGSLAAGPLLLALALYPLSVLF

[8] = biological target: T2, Intestinal-type alkaline phosphatase; assay: Inhibition of mouse duodenal-specific FLAG-tagged IAP expressed in African green monkey COS1 cells after 30 mins by chemiluminescence assay; assay type: cell-based, COS-1
[9] = biological target: Intestinal-type alkaline phosphatase (Mus musculus) (UniProt P24822); conditions: CHO-K1, 10 uM
Sequence of Intestinal-type alkaline phosphatase (Mus musculus) (P24822 whole entry): as the sequence (P24822 whole entry) above
Description: Inhibition of mouse duodenal-specific IAP expressed in CHOK1 cells at 10 uM by ELF97 staining-based phase contrast microscopic analysis

[10] = biological target: T1, Intestinal-type alkaline phosphatase; assay: Inhibition of human FLAG-tagged IAP expressed in African green monkey COS1 cells after 30 mins by chemiluminescence assay; assay type: cell-based, COS-1

SMILES	IC50 [6] [µM]	IC50 [7] [µM]	IC50 [8] [µM]	other results
Cc1ccc(C)c(NC(=O)CNS(=O)(=O)c2ccc3[nH]c(=O)oc3c2)c1	> 100	35	0.54	IC50 [1]: 27.6 µM; Ki [2]: 3.2 µM; IC50 [3]: 21 µM; IC50 [4]: 21.1 µM; IC50 [5]: 3.8 µM; inhibition [9]: Active
COc1ccc(NC(=O)NS(=O)(=O)c2ccc3[nH]c(=O)oc3c2)cc1OC	> 100	> 100	> 100	
O=C(Nc1ccc2c(c1)OCO2)NS(=O)(=O)c1ccc2[nH]c(=O)oc2c1	> 100	> 100	> 100	
O=C(NCCc1ccc2c(c1)OCO2)NS(=O)(=O)c1ccc2[nH]c(=O)oc2c1	> 100	> 100	> 100	
Cc1ccc(C)c(NC(=O)NS(=O)(=O)c2ccc3[nH]c(=O)oc3c2)c1	> 100	> 100	> 100	
O=C(CCNS(=O)(=O)c1ccc2[nH]c(=O)oc2c1)Nc1ccc2c(c1)OCO2	> 100	> 100	12	
O=C(CCNS(=O)(=O)c1ccc2[nH]c(=O)oc2c1)NCCc1ccc2c(c1)OCO2	> 100	> 100	19	
N#Cc1cccc(NC(=O)NS(=O)(=O)c2ccc3[nH]c(=O)oc3c2)c1	> 100	> 100	> 100	
COc1cccc(CNC(=O)NS(=O)(=O)c2ccc3[nH]c(=O)oc3c2)c1	> 100	> 100	40	
O=C(CCNS(=O)(=O)c1ccc2[nH]c(=O)oc2c1)NCCCc1ccc2c(c1)OCO2	> 100	> 100	44	
O=C(CNS(=O)(=O)c1ccc2[nH]c(=O)oc2c1)NCCc1ccc2c(c1)OCO2	> 100	> 100	> 100	
N#Cc1cccc(NC(=O)CCNS(=O)(=O)c2ccc3nc(O)oc3c2)c1	> 100	> 100	1.82	IC50 [10]: > 100 µM
O=C(CNS(=O)(=O)c1ccc2[nH]c(=O)oc2c1)NCc1ccc2c(c1)OCO2	> 100	> 100	> 100	
O=C(CCCNS(=O)(=O)c1ccc2[nH]c(=O)oc2c1)NCc1ccc2c(c1)OCO2	> 100	> 100	45	
O=C(CCNS(=O)(=O)c1ccc2[nH]c(=O)oc2c1)NCc1ccc2c(c1)OCO2	> 100	> 100	2.6	
COc1ccc(CNC(=O)NS(=O)(=O)c2ccc3[nH]c(=O)oc3c2)c(OC)c1	> 100	> 100	89	
N#Cc1ccc(NC(=O)NS(=O)(=O)c2ccc3[nH]c(=O)oc3c2)cc1	> 100	> 100	> 100	
